Patent US20250098679A1, “HERBICIDAL PYRIDONE DERIVATIVES” (SYNGENTA CROP PROTECTION AG, priority 2021, published 2025)

How the values were obtained:
Type in all cases: in vivo
Settings in all cases: evaluated after 13 days
[1] = test system: Amaranthus retoflexus (AMARE); assay: Post-emergence Test, Amaranthus retoflexus (AMARE); design: key to percentage damage caused to the plant, AMARE (five-point scale): 5=81-100%, 4=61-80%, 3=41-60%, 2=21-40%, 1=0-20% damage
In short: (§1)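 Application was a spray of acetone/water (50:50) with 0.5% Tween 20 onto pots of test species sown in standard soil. Unless otherwise stated, the rate was 1000 g/ha. After 13 days under glasshouse conditions (24/16 °C, 65% humidity), injury was scored from 1 (0-20%) to 5 (81-100%).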

[2] = test system: Amaranthus palmeri (AMAPA); assay: Pre-emergence Test, Amaranthus palmeri (AMAPA)
[3] = test system: Echinochloa crus-galli (ECHCG); assay: Post-emergence Test, Echinochloa crus-galli (ECHCG); design: key to percentage damage caused to the plant, ECHCG (five-point scale): 5=81-100%, 4=61-80%, 3=41-60%, 2=21-40%, 1=0-20% damage
In short: as §1

[4] = test system: Ipomoea hederacea (IPOHE); assay: Post-emergence Test, Ipomoea hederacea (IPOHE); design: key to percentage damage caused to the plant, IPOHE (five-point scale): 5=81-100%, 4=61-80%, 3=41-60%, 2=21-40%, 1=0-20% damage
In short: as §1

Setaria faberi (SETFA) [5] = assay: Pre-emergence Test, Setaria faberi (SETFA)
[6] = test system: Ipomoea hederacea (IPOHE); assay: Pre-emergence Test, Ipomoea hederacea (IPOHE)
[7] = test system: Amaranthus palmeri (AMAPA); assay: Post-emergence Test, Amaranthus palmeri (AMAPA); design: key: 5=81-100%, 4=61-80%, 3=41-60%, 2=21-40%, 1=0-20% damage
In short: as §1

Setaria faberi (SETFA) [8] = assay: Post-emergence Test, Setaria faberi (SETFA); design: key to percentage damage caused to the plant, SETFA (five-point scale): 5=81-100%, 4=61-80%, 3=41-60%, 2=21-40%, 1=0-20% damage
In short: as §1

[9] = test system: Amaranthus retoflexus (AMARE); assay: Pre-emergence Test, Amaranthus retoflexus (AMARE)
[10] = test system: Echinochloa crus-galli (ECHCG); assay: Pre-emergence Test, Echinochloa crus-galli (ECHCG)
Zea mays (ZEAMX) [11] = assay: Post-emergence Test, Zea mays (ZEAMX); design: key to percentage damage caused to the plant, ZEAMX (five-point scale): 5=81-100%, 4=61-80%, 3=41-60%, 2=21-40%, 1=0-20% damage
In short: as §1

Zea mays (ZEAMX) [12] = assay: Pre-emergence Test, Zea mays (ZEAMX)

Structure (SMILES) | percentage damage caused to the plant, AMARE (five-point scale) ([1]; 1000 g/ha) | Pre-emergence Test AMAPA, percentage damage caused to the plant (five-point scale) ([2]; 250 g/Ha (*)) | Pre-emergence Test AMAPA, percentage damage caused to the plant (five-point scale) ([2]; 1000 g/ha) | percentage damage caused to the plant, ECHCG (five-point scale) ([3]; 1000 g/ha) | percentage damage caused to the plant, IPOHE (five-point scale) ([4]; 1000 g/ha) | Pre-emergence Test SETFA, percentage damage caused to the plant (five-point scale) (Setaria faberi (SETFA) [5]; 250 g/Ha (*)) | Pre-emergence Test SETFA, percentage damage caused to the plant (five-point scale) (Setaria faberi (SETFA) [5]; 1000 g/ha) | Pre-emergence Test IPOHE, percentage damage caused to the plant (five-point scale) ([6]; 1000 g/ha) | percentage damage caused to the plant, AMAPA (five-point scale) ([7]; 1000 g/ha) | percentage damage caused to the plant, SETFA (five-point scale) (Setaria faberi (SETFA) [8]; 1000 g/ha) | Pre-emergence Test AMARE, percentage damage caused to the plant (five-point scale) ([9]; 1000 g/ha) | Pre-emergence Test ECHCG, percentage damage caused to the plant (five-point scale) ([10]; 1000 g/ha) | percentage damage caused to the plant, ZEAMX (five-point scale) (Zea mays (ZEAMX) [11]; 1000 g/ha) | Pre-emergence Test ZEAMX, percentage damage caused to the plant (five-point scale) (Zea mays (ZEAMX) [12]; 1000 g/ha) | percentage damage caused to the plant, AMARE (five-point scale) ([1]; 250 g/Ha) | percentage damage caused to the plant, ECHCG (five-point scale) ([3]; 250 g/Ha) | percentage damage caused to the plant, IPOHE (five-point scale) ([4]; 250 g/Ha) | percentage damage caused to the plant, AMAPA (five-point scale) ([7]; 250 g/Ha) | percentage damage caused to the plant, SETFA (five-point scale) (Setaria faberi (SETFA) [8]; 250 g/Ha) | percentage damage caused to the plant, ZEAMX (five-point scale) (Zea mays (ZEAMX) [11]; 250 g/Ha) | also measured
C=CCOc1ccn(Cc2cc(=O)c(C(=O)O)c(-c3ccc(Cl)c(Cl)c3)n2CC)n1 [Compound 163, 6-[(3-allyloxypyrazol-1-yl)methyl]-2-(3,4-dichlorophenyl)-1-ethyl-4-oxo-pyridine-3-carboxylic acid] | 1 (1=0-20%) | 0 | 0 | 3 (3=41-60%) | 2 (2=21-40%) | 0 | 3 (3=41-60%) | 3 (3=41-60%) | 1 (1=0-20%) | 4 (4=61-80%) | 0 | 4 (4=61-80%) | 1 (1=0-20%) | 2 (2=21-40%) | – | – | – | – | – | – | Pre-emergence Test IPOHE, percentage damage caused to the plant (five-point scale) ([6]; 250 g/Ha (*)): 1 (1=0-20%); Pre-emergence Test AMARE, percentage damage caused to the plant (five-point scale) ([9]; 250 g/Ha (*)): 0; Pre-emergence Test ECHCG, percentage damage caused to the plant (five-point scale) ([10]; 250 g/Ha (*)): 1 (1=0-20%); Pre-emergence Test ZEAMX, percentage damage caused to the plant (five-point scale) (Zea mays (ZEAMX) [12]; 250 g/Ha (*)): 0
CCn1c(Cn2nc(C(F)(F)F)cc2Cl)cc(=O)c(C(=O)O)c1-c1ccc(Cl)c(Cl)c1 [Compound 169, 6-[[5-chloro-3-(trifluoromethyl)pyrazol-1-yl]methyl]-2-(3,4-dichlorophenyl)-1-ethyl-4-oxo-pyridine-3-carboxylic acid] | – | 1 (1=0-20%) | – | – | – | 5 (5=81-100%) | – | – | – | – | – | – | – | – | 3 (3=41-60%) | 3 (3=41-60%) | 4 (4=61-80%) | 3 (3=41-60%) | 4 (4=61-80%) | 4 (4=61-80%) | Pre-emergence Test IPOHE, percentage damage caused to the plant (five-point scale) ([6]; 250 g/Ha (*)): 1 (1=0-20%); Pre-emergence Test AMARE, percentage damage caused to the plant (five-point scale) ([9]; 250 g/Ha (*)): 1 (1=0-20%); Pre-emergence Test ECHCG, percentage damage caused to the plant (five-point scale) ([10]; 250 g/Ha (*)): 4 (4=61-80%); Pre-emergence Test ZEAMX, percentage damage caused to the plant (five-point scale) (Zea mays (ZEAMX) [12]; 250 g/Ha (*)): 0
COCCn1c(Cn2ccc(C(F)(F)F)n2)cc(=O)c(C(=O)O)c1-c1ccc(Cl)c(Cl)c1 [Compound 170, 2-(3,4-dichlorophenyl)-1-(2-methoxyethyl)-4-oxo-6-[[3-(trifluoromethyl)pyrazol-1-yl]methyl]pyridine-3-carboxylic acid] | 1 (1=0-20%) | – | 0 | 4 (4=61-80%) | 3 (3=41-60%) | – | 4 (4=61-80%) | 2 (2=21-40%) | 1 (1=0-20%) | 4 (4=61-80%) | 0 | 3 (3=41-60%) | 1 (1=0-20%) | 0 | 0 | 3 (3=41-60%) | 3 (3=41-60%) | 0 | 3 (3=41-60%) | 0 | –
COCCn1c(Cn2ccc(Cl)n2)cc(=O)c(C(=O)O)c1-c1ccc(Cl)c(Cl)c1 [Compound 171, 6-[(3-chloropyrazol-1-yl)methyl]-2-(3,4-dichlorophenyl)-1-(2-methoxyethyl)-4-oxo-pyridine-3-carboxylic acid] | 0 | – | 0 | 3 (3=41-60%) | 1 (1=0-20%) | – | 4 (4=61-80%) | 0 | 0 | 3 (3=41-60%) | 1 (1=0-20%) | 1 (1=0-20%) | 1 (1=0-20%) | 1 (1=0-20%) | 0 | 1 (1=0-20%) | 1 (1=0-20%) | 0 | 0 | 1 (1=0-20%) | –
CCOCc1ccn(Cc2cc(=O)c(C(=O)O)c(-c3ccc(Cl)c(Cl)c3)n2CC)n1 [Compound 173, 2-(3,4-dichlorophenyl)-6-[[3-(ethoxymethyl)pyrazol-1-yl]methyl]-1-ethyl-4-oxo-pyridine-3-carboxylic acid] | 1 (1=0-20%) | – | 0 | 4 (4=61-80%) | 2 (2=21-40%) | – | 4 (4=61-80%) | 3 (3=41-60%) | 1 (1=0-20%) | 4 (4=61-80%) | 0 | 4 (4=61-80%) | 1 (1=0-20%) | 0 | 0 | 2 (2=21-40%) | 1 (1=0-20%) | 0 | 1 (1=0-20%) | 0 | –
